Patent US20140274984A1, “ACID ADDITION SALTS OF 5ALPHA-HYDROXY-6BETA-[2-(1H-IMIDAZOL-4-YL)ETHYLAMINO]CHOLESTAN-3BETA-OL” (INSERM (INSTITUT NATIONAL DE LA SANTÉ ET DE LA RECHERE …, priority 2011, published 2014)

Test: Water solubility at room temperature (shake 5 hours, filtered supernatant, HPLC with calibration curve)
Format: physicochemical
Settings: shaken 5 hours
Method: An adequate amount of each sample was taken. Water (50% v/v) was added to each sample, and the mixture was shaken at room temperature for 5 hours. The supernatant was filtered through a filter, and diluted with a mixed solution of water 0.1% TFA/acetonitrile as necessary to give a sample solution. The concentration (mg/ml) of the sample solution was measured by high performance liquid chromatography (HPLC) with a calibration curve method, and taken as the solubility in water at room temperature.
HPLC Analysis Conditions:
HPLC purifications and analyses were carried out using an LC200 series Perkin Elmer apparatus, and diode array UV detector, using an Ultrasep C18 RP 100 column from Bischoff Chromatography.

Row | Substance | Solubility in water at room temperature [µg/mL]
1 | 5alpha-Hydroxy-6beta-[2-(1H-imidazol-4-yl)ethylamino]cholestan-3beta-ol, mesylate [Example 13] | 11000
2 | 5alpha-Hydroxy-6beta-[2-(1H-imidazol-4-yl)ethylamino]cholestan-3beta-ol, pamoate [Example 7] | 1400
3 | 5alpha-Hydroxy-6beta-[2-(1H-imidazol-4-yl)ethylamino]cholestan-3beta-ol, acetate [Example 14] | 4500
